# Molecular target: Human TASK-1 channels (Homo sapiens (Human), UniProt O14649)
# Experiment: Activity on the TASK-1 channel in Xenopus oocytes (two-microelectrode voltage clamp)
# Type: cell-based
# Conditions: not given
# Procedure: Human TASK-1 channels were expressed in Xenopus oocytes. For this purpose, oocytes were isolated from Xenopus laevis and defoliculated. Subsequently, TASK-1-encoding RNA synthesized in vitro was injected into oocytes. […] Data were acquired and analyzed using a TEC-10cx amplifier (NPI Electronic, Tamm, Germany) connected to an ITC-16 interface (Instrutech Corp., Long Island, USA) and Pulse software (HEKA Elektronik, Lambrecht, Germany). […] Oocytes were continuously superfused with ND96 buffer containing: NaCl 96 mM, KCl 2 mM, CaCl2 1.8 mM, MgCl2 1 mM, HEPES 5 mM (pH adjusted to 7.4 with NaOH). All experiments were performed at room temperature.
# Test substances were consecutively added to the bath solution at rising concentrations. […] IC50 values were obtained by fitting the data to the general dose-response equation.
# Sequence of Human TASK-1 channels (O14649 whole entry): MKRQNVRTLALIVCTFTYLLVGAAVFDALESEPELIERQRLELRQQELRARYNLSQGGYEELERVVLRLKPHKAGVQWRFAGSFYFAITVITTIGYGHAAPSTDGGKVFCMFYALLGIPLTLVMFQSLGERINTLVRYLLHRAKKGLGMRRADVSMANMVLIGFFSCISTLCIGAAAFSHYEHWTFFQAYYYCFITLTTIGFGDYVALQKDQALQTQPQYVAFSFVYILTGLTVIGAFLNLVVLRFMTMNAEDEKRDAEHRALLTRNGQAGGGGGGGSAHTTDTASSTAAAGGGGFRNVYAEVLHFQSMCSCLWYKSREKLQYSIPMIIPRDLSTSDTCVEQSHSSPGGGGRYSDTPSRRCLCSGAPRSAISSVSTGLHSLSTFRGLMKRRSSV
row,inhibition at 5 µM,Compound
1,70%,"COc1ccnc(Cn2nc(-c3cccc(C(F)(F)F)c3)c3c2CCN(C(C)=O)C3)c1 [Example 6q, 1-[1-(4-Methoxy-pyridin-2-ylmethyl)-3-(3-trifluoromethyl-phenyl)-1,4,6,7-tetrahydro-pyrazolo[4,3-c]pyridin-5-yl]-ethanone]"
2,83%,"COc1cccnc1Cn1nc(-c2cccc(C(F)(F)F)c2)c2c1CCN(C(C)=O)C2 [Example 6s, 1-[1-(3-Methoxy-pyridin-2-ylmethyl)-3-(3-trifluoromethyl-phenyl)-1,4,6,7-tetrahydro-pyrazolo[4,3-c]pyridin-5-yl]-ethanone]"
3,77%,"CCOC(=O)N1CCc2c(c(-c3cccc(C#N)c3)nn2Cc2ccc(F)cc2F)C1 [Example 8y, 3-(3-Cyano-phenyl)-1-(2,4-difluoro-benzyl)-1,4,6,7-tetrahydro-pyrazolo[4,3-c]pyridine-5-carboxylic acid ethyl ester]"
4,89%,"CC(=O)N1CCc2c(c(-c3cccc(C)c3)nn2Cc2ccc(F)cc2F)C1 [Example 6az, 1-[1-(2,4-Difluoro-benzyl)-3-m-tolyl-1,4,6,7-tetrahydro-pyrazolo[4,3-c]pyridin-5-yl]-ethanone]"
5,62%,"CC(=O)N1CCc2c(c(-c3cccc(Cl)c3)nn2Cc2ncccc2C)C1 [Example 6t, 1-[3-(3-Chloro-phenyl)-1-(3-methyl-pyridin-2-ylmethyl)-1,4,6,7-tetrahydro-pyrazolo[4,3-c]pyridin-5-yl]-ethanone]"
6,84%,"CC(=O)N1CCc2c(c(-c3cccc(C(F)(F)F)c3)nn2Cc2nccs2)C1 [Example 6ae, 1-[1-Thiazol-2-ylmethyl-3-(3-trifluoromethyl-phenyl)-1,4,6,7-tetrahydro-pyrazolo[4,3-c]pyridin-5-yl]-ethanone]"
7,79%,"CC(=O)N1CCc2c(c(-c3cccc(C)c3)nn2Cc2cnccc2Cl)C1 [Example 6r, 1-[1-(4-Chloro-pyridin-3-ylmethyl)-3-m-tolyl-1,4,6,7-tetrahydro-pyrazolo[4,3-c]pyridin-5-yl]-ethanone]"
8,78%,"CC(=O)N1CCc2c(c(-c3ccnc(Br)c3)nn2Cc2ccc(F)cc2F)C1 [Example 6k, 1-[3-(2-Bromo-pyridin-4-yl)-1-(2,4-difluoro-benzyl)-1,4,6,7-tetrahydro-pyrazolo[4,3-c]pyridin-5-yl]-ethanone]"
9,79%,"CC(=O)N1CCc2c(c(-c3cccc(C#N)c3)nn2Cc2ccc(Cl)s2)C1 [Example 6ai, 3-[5-Acetyl-1-(5-chloro-thiophen-2-ylmethyl)-4,5,6,7-tetrahydro-1H-pyrazolo[4,3-c]pyridin-3-yl]-benzonitrile]"
10,74%,"CN(C)C(=O)N1CCc2c(c(-c3cccc(C#N)c3)nn2Cc2ccc(F)cc2F)C1 [Example 12d, 3-(3-Cyano-phenyl)-1-(2,4-difluoro-benzyl)-1,4,6,7-tetrahydro-pyrazolo[4,3-c]pyridine-5-carboxylic acid dimethylamide]"
11,65%,"CN(CCO)C(=O)N1CCc2c(c(-c3cccc(C#N)c3)nn2Cc2ccc(F)cc2F)C1 [Example 12e, 3-(3-Cyano-phenyl)-1-(2,4-difluoro-benzyl)-1,4,6,7-tetrahydro-pyrazolo[4,3-c]pyridine-5-carboxylic acid (2-hydroxy-ethyl)-methyl-amide]"
12,86%,"COc1cccc(-c2nn(Cc3ccc(F)cc3F)c3c2CN(C(C)=O)CC3)n1 [Example 6y, 1-[1-(2,4-Difluoro-benzyl)-3-(6-methoxy-pyridin-2-yl)-1,4,6,7-tetrahydro-pyrazolo[4,3-c]pyridin-5-yl]-ethanone]"

# Same assay, conditions: human TASK-1 expressed in Xenopus oocytes, currents during pulses to 40 mV, room temperature
row,IC50,Compound
1,< 10000 nM,"COc1cccc(Cn2nc(-c3cccc(Cl)c3)c3c2CCN(C(C)=O)C3)c1 [Example 6bd, 1-[3-(3-Chloro-phenyl)-1-(3-methoxy-benzyl)-1,4,6,7-tetrahydro-pyrazolo[4,3-c]pyridin-5-yl]-ethanone]"
2,3260 nM,"COc1ccc(C(=O)N2CCc3c(c(-c4ccc(F)cc4)nn3Cc3ccccc3)C2)cc1 [Example 8g, [1-Benzyl-3-(4-fluoro-phenyl)-1,4,6,7-tetrahydro-pyrazolo[4,3-c]pyridin-5-yl]-(4-methoxy-phenyl)-methanone]"
3,552 nM,"CC(=O)N1CCc2c(c(-c3ccc(F)cc3)nn2C(C)c2ccc(F)cc2)C1 (stereo not drawn) [Example 6ar, 1-{3-(4-Fluoro-phenyl)-1-[1-(4-fluoro-phenyl)-ethyl]-1,4,6,7-tetrahydro-pyrazolo[4,3-c]pyridin-5-yl}-ethanone]"
4,598 nM,"CC(=O)N1CCc2c(c(-c3ccc(F)cc3)nn2Cc2ccc(F)cc2F)C1 [Example 6f, 1-[1-(2,4-Difluoro-benzyl)-3-(4-fluoro-phenyl)-1,4,6,7-tetrahydro-pyrazolo[4,3-c]pyridin-5-yl]-ethanone]"
5,270 nM,"CC(=O)N1CCc2c(c(-c3ccc(Cl)s3)nn2Cc2ccc(F)cc2F)C1 [Example 6ak, 1-[3-(5-Chloro-thiophen-2-yl)-1-(2,4-difluoro-benzyl)-1,4,6,7-tetrahydro-pyrazolo[4,3-c]pyridin-5-yl]-ethanone]"
6,99.5 nM,"CC(=O)N1CCc2c(c(-c3cccc(C(F)(F)F)n3)nn2Cc2ccc(F)cc2)C1 [Example 6g, 1-[1-(4-Fluoro-benzyl)-3-(6-trifluoromethyl-pyridin-2-yl)-1,4,6,7-tetrahydro-pyrazolo[4,3-c]pyridin-5-yl]-ethanone]"
7,2440 nM,"CC(=O)N1CCc2c(c(-c3cncc(Br)c3)nn2Cc2ccc(F)cc2F)C1 [Example 6m, 1-[3-(5-Bromo-pyridin-3-yl)-1-(2,4-difluoro-benzyl)-1,4,6,7-tetrahydro-pyrazolo[4,3-c]pyridin-5-yl]-ethanone]"
8,530 nM,"CCC(=O)N1CCc2c(c(-c3cccc(C#N)c3)nn2Cc2ccc(F)cc2F)C1 [Example 8p, 3-[1-(2,4-Difluoro-benzyl)-5-propionyl-4,5,6,7-tetrahydro-1H-pyrazolo[4,3-c]pyridin-3-yl]-benzonitrile]"
9,187 nM,"CC(=O)N1CCc2c(c(-c3cccc(C#N)c3)nn2C(C)c2ccc(F)cc2)C1 (stereo not drawn) [Example 6an, 3-{5-Acetyl-1-[1-(4-fluoro-phenyl)-ethyl]-4,5,6,7-tetrahydro-1H-pyrazolo[4,3-c]pyridin-3-yl}-benzonitrile]"
10,190 nM,"CC(=O)N1CCc2c(c(-c3cc(C(F)(F)F)ccn3)nn2Cc2ccc(F)cc2F)C1 [Example 6h, 1-[1-(2,4-Difluoro-benzyl)-3-(4-trifluoromethyl-pyridin-2-yl)-1,4,6,7-tetrahydro-pyrazolo[4,3-c]pyridin-5-yl]-ethanone]"
11,422 nM,"CC(=O)N1CCc2c(c(-c3cccc(C(F)(F)F)c3)nn2Cc2ncccc2C)C1 [Example 6d, 1-[1-(3-Methyl-pyridin-2-ylmethyl)-3-(3-trifluoromethyl-phenyl)-1,4,6,7-tetrahydro-pyrazolo[4,3-c]pyridin-5-yl]-ethanone]"
12,1880 nM,"Cn1ccc(C(=O)N2CCc3c(c(-c4cccc(C#N)c4)nn3Cc3ccc(F)cc3F)C2)n1 [Example 8x, 3-[1-(2,4-Difluoro-benzyl)-5-(1-methyl-1H-pyrazole-3-carbonyl)-4,5,6,7-tetrahydro-1H-pyrazolo[4,3-c]pyridin-3-yl]-benzonitrile]"
13,756 nM,"C[C@H](O)C(=O)N1CCc2c(c(-c3cccc(C#N)c3)nn2Cc2ccc(F)cc2F)C1 [Example 8q, 3-[1-(2,4-Difluoro-benzyl)-5-((S)-2-hydroxy-propionyl)-4,5,6,7-tetrahydro-1H-pyrazolo[4,3-c]pyridin-3-yl]-benzonitrile]"
14,864 nM,"N#Cc1cccc(-c2nn(Cc3ccc(F)cc3F)c3c2CN(C(=O)c2ccncn2)CC3)c1 [Example 8v, 3-[1-(2,4-Difluoro-benzyl)-5-(pyrimidine-4-carbonyl)-4,5,6,7-tetrahydro-1H-pyrazolo[4,3-c]pyridin-3-yl]-benzonitrile]"
15,734 nM,"CC(c1ccc(F)cc1)n1nc(-c2ccc(F)cc2)c2c1CCN(C(=O)N1CC[C@H](O)C1)C2 (single isomer, unassigned) [Example 12c]"
16,1160 nM,"CC(=O)N1CCc2c(c(-c3cccc(F)c3)nn2Cc2ccc(F)cc2F)C1 [Example 6bj, 1-[1-(2,4-Difluoro-benzyl)-3-(3-fluoro-phenyl)-1,4,6,7-tetrahydro-pyrazolo[4,3-c]pyridin-5-yl]-ethanone]"
17,585 nM,"N#Cc1cccc(-c2nn(Cc3ccc(F)cc3F)c3c2CN(C(=O)C2CCOCC2)CC3)c1 [Example 8l, 3-[1-(2,4-Difluoro-benzyl)-5-(tetra-hydro-pyran-4-carbonyl)-4,5,6,7-tetrahydro-1H-pyrazolo[4,3-c]pyridin-3-yl]-benzonitrile]"
18,< 10000 nM,"CC(=O)N1CCc2c(c(-c3cccc(Br)n3)nn2Cc2ccc(F)cc2F)C1 [Example 6w, 1-[3-(6-Bromo-pyridin-2-yl)-1-(2,4-difluoro-benzyl)-1,4,6,7-tetrahydro-pyrazolo[4,3-c]pyridin-5-yl]-ethanone]"
19,215 nM,"CC(=O)N1CCc2c(c(-c3cccc(C(F)(F)F)c3)nn2Cc2cnccc2Cl)C1 [Example 6c, 1-[1-(4-Chloro-pyridin-3-ylmethyl)-3-(3-trifluoromethyl-phenyl)-1,4,6,7-tetrahydro-pyrazolo[4,3-c]pyridin-5-yl]-ethanone]"
20,659 nM,"CC(=O)N1CCc2c(c(-c3ccc(F)cc3)nn2Cc2ccc(C(F)(F)F)cc2)C1 [Example 6as, 1-[3-(4-Fluoro-phenyl)-1-(4-trifluoromethyl-benzyl)-1,4,6,7-tetrahydro-pyrazolo[4,3-c]pyridin-5-yl]-ethanone]"

row,Compound,IC50
1,"CC(=O)N1C2CCC1c1c(-c3ccc(F)cc3)nn(Cc3ccc(F)cc3F)c1C2 (stereo not drawn) [Example 6o, 1-[5-(2,4-Difluoro-benzyl)-3-(4-fluoro-phenyl)-4,5,11-triaza-tricyclo [6.2.1.02,6]undeca-2(6),3-dien-11-yl]-ethanone]",< 10000 nM

# Reference: patent publication US9127001B2, “Substituted 4,5,6,7-tetrahydro-1H-pyrazolo[4,3-c]pyridines, their use as medicament, and pharmaceutical preparations comprising them” (Sanofi, priority 2011, dated 2015)
